Read-outs that look alike come from different tables or passages of the source.
Assays:
Experiment in all cases: ITC
EF-Tu [1] = biological target: T1, EF-Tu; design: species or system Escherichia coli; details: 50 mM Hepes pH 7.4, 40 mM NH4Cl, 2 mM MgCl2, 1 mM TCEP
T1 construct: gene tufA; full-length, His-tagged (pET-His-EF-Tu), expressed in E. coli BL21(DE3), nucleotide-free, unphosphorylated
Excerpt: ITC on EF-Tu | consistent with the affinities measured with GDPNP

pEF-TuT382 [2] = biological target: T2, pEF-TuT382; design: species or system Escherichia coli; details: 50 mM Hepes pH 7.4, 40 mM NH4Cl, 2 mM MgCl2, 1 mM TCEP; phosphorylated at T382
T2 construct: gene tufA; full-length His-tagged EF-Tu phosphorylated at T382 in vitro by toxin Doc with ATP, repurified by SEC

EF-Tu [3] = biological target: T1, EF-Tu; assay type: binding, Escherichia coli; details: 20 °C, 50 mM Hepes pH 7.4, 40 mM NH4Cl, 2 mM MgCl2, 1 mM TCEP, nucleotide-free protein; read-out: affinity
pEF-TuT382 [4] = biological target: T2, pEF-TuT382; assay type: binding, Escherichia coli; details: 50 mM Hepes pH 7.4, 40 mM NH4Cl, 2 mM MgCl2, 1 mM TCEP, nucleotide-free protein, phosphorylated at T382

Kd (EF-Tu [1]) | Kd (pEF-TuT382 [2]) | Kd (EF-Tu [3]) | Kd (pEF-TuT382 [4]; read-out: affinity) | Kd (pEF-TuT382 [4]; read-out: Kd) | SMILES
128 ± 8 nM | 320 ± 1 nM | – | – | – | Nc1nc2c(ncn2[C@@H]2O[C@H](COP(=O)(O)OP(=O)(O)NP(=O)(O)O)[C@@H](O)[C@H]2O)c(=O)[nH]1 [GDPNP, 5′-guanylyl imidodiphosphate]
– | – | 4.5 nM | 5.7 nM | – | Nc1nc2c(ncn2[C@@H]2O[C@H](COP(=O)(O)OP(=O)(O)O)[C@@H](O)[C@H]2O)c(=O)[nH]1 [GDP]
– | – | 81 nM | – | 90 nM | Nc1nc2c(ncn2[C@@H]2O[C@H](COP(=O)(O)OP(=O)(O)OP(O)(O)=S)[C@@H](O)[C@H]2O)c(=O)[nH]1 [GTPγS, guanosine-5′-(γ-thio)-triphosphate]

Source: article PMC5851678, “Phosphorylation decelerates conformational dynamics in bacterial translation elongation factors” (Science Advances, 2018)
